We go through 8 molecules from PubChem BioAssay (NCI).

Test systems include HT29 colon; KM12 colon; HOP-92 NSCLC; U251 CNS; OVCAR-5 ovarian; MOLT-4 leukemia; A549 NSCLC; NCI/ADR-RES ovarian; COLO 205 colon; UACC-257 melanoma.
Holding throughout (experiment): NCI tumour cell line growth inhibition, 48 h

Where “and” joins values, the source holds several entries; their conditions need not be identical. Equal entries are not always repeated.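 Tested at 5 concentrations; 48 h exposure; 96-well plates; endpoints linearly interpolated, else capped at highest concentration. Abbreviation: GI50, concentration required for 50% inhibition of growth. The concentration for full growth arrest is given as TGI.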

As for `Cn1cc(-c2csc(-c3cccc(F)c3)n2)c2cccnc21`, the GI50 is 14.2 µM in the assay on HT29 colon; 16 µM in the assay with KM12 colon; 1.04 µM with HOP-92 NSCLC; 15.5 µM in the assay on U251 CNS; 14.8 µM with OVCAR-5 ovarian; 11.7 µM with MOLT-4 leukemia. The GI50 in the assay with A549 NSCLC is 20.9 µM; in the assay with NCI/ADR-RES ovarian, 20.3 µM; with COLO 205 colon, 15.7 µM; with UACC-257 melanoma it was 21.8 µM. Further, the TGI amounted to 27.9 µM with HT29 colon; 29.5 µM in the assay on KM12 colon; 18.6 µM with HOP-92 NSCLC; 31.8 µM in the assay with U251 CNS; 31.5 µM in the assay on OVCAR-5 ovarian; 34.6 µM in the assay on MOLT-4 leukemia. Besides, the TGI with A549 NSCLC came out at 47.4 µM; in the assay on NCI/ADR-RES ovarian, 50.2 µM; in the assay with COLO 205 colon, 30.1 µM; in the assay on UACC-257 melanoma, 42.6 µM.
`Cc1c2c(nn1-c1ccc(S(=O)(=O)/N=C3\SCC(=O)N3C(=O)c3ccccc3)cc1)-c1ccccc1CC2`: the GI50 is 63.5 µM in the assay with HT29 colon; 51.4 µM in the assay on KM12 colon; 30.9 µM with HOP-92 NSCLC; 23.3 µM in the assay with U251 CNS; 49.9 µM in the assay on OVCAR-5 ovarian; over 100 µM in the assay with MOLT-4 leukemia. Moreover, the GI50 is over 100 µM with A549 NSCLC, over 100 µM in the assay on NCI/ADR-RES ovarian and 92.5 µM in the assay with UACC-257 melanoma. The TGI in the assay on HT29 colon was over 100 µM; in the assay with KM12 colon, over 100 µM; in the assay with HOP-92 NSCLC, 66.2 µM; in the assay on U251 CNS, 62.4 µM; with OVCAR-5 ovarian, over 100 µM; in the assay on MOLT-4 leukemia, over 100 µM. Besides, the TGI with A549 NSCLC, in the assay with NCI/ADR-RES ovarian and with UACC-257 melanoma was over 100 µM each time.
Take `CCCCCCCCCCC(O)C1CCC(C2CCC(C(O)CCCCC(O)CCCCCC(O)CC3=CC(C)OC3=O)O2)O1` (stereo not drawn): the GI50 is over 25 µM in the assay on KM12 colon; 3.87 µM in the assay on HOP-92 NSCLC; 5.65 µM in the assay with U251 CNS; 2.57 µM in the assay with MOLT-4 leukemia; 1.93 µM in the assay with A549 NSCLC; over 25 µM in the assay with NCI/ADR-RES ovarian. In addition, the GI50 is 3.09 µM in the assay on COLO 205 colon and 0.452 µM in the assay on UACC-257 melanoma. Besides, the TGI with KM12 colon, in the assay with HOP-92 NSCLC, with U251 CNS, with OVCAR-5 ovarian, in the assay on MOLT-4 leukemia and in the assay on A549 NSCLC was over 25 µM each time. Further, the TGI in the assay on NCI/ADR-RES ovarian was over 25 µM; with COLO 205 colon, 9.15 µM and > 25 µM; with UACC-257 melanoma it was over 25 µM.
Consider `CN1C(NC(=O)c2ccc(Cl)nc2)=NS(=O)(=O)c2cc(Cl)ccc21`, for which the GI50 in the assay with HT29 colon, in the assay on KM12 colon, in the assay with HOP-92 NSCLC, in the assay on U251 CNS, in the assay on MOLT-4 leukemia and in the assay on A549 NSCLC was over 100 µM each time. Also, the GI50 in the assay on NCI/ADR-RES ovarian, with COLO 205 colon and in the assay on UACC-257 melanoma was over 100 µM throughout. The TGI with HT29 colon, with KM12 colon, in the assay with HOP-92 NSCLC, with U251 CNS, with MOLT-4 leukemia and in the assay with A549 NSCLC was over 100 µM throughout. In addition, the TGI with NCI/ADR-RES ovarian, in the assay on COLO 205 colon and with UACC-257 melanoma was over 100 µM in each case.
On to `NCCCCn1c2c(c3ccccc3c1=O)C(=O)c1ccccc1-2`, for which the GI50 in the assay on HT29 colon is 0.163 µM; with KM12 colon, 0.188 µM; in the assay on HOP-92 NSCLC, 0.0363 µM; in the assay with U251 CNS it was 0.0485 µM; in the assay on OVCAR-5 ovarian it was 0.494 µM; with A549 NSCLC, 0.0263 µM. The GI50 in the assay on NCI/ADR-RES ovarian was 0.709 µM; in the assay on COLO 205 colon it was 0.92 µM; in the assay on UACC-257 melanoma, 0.619 µM. Moreover, the TGI with KM12 colon came to 0.678 µM; in the assay with HOP-92 NSCLC it was 0.535 µM; with U251 CNS it was 0.824 µM; with OVCAR-5 ovarian, 1.37 µM; in the assay with A549 NSCLC, 0.361 µM; in the assay on NCI/ADR-RES ovarian it was 2.54 µM. The figures for the TGI in the assay on COLO 205 colon and in the assay with UACC-257 melanoma were 11 µM and 1.91 µM, respectively.
As for `Cc1cc(C)cc(Nc2cc(C)nc3nc(C(F)(F)F)nn23)c1`, the GI50 is over 100 µM in the assay on HT29 colon; over 100 µM with KM12 colon; 26.2 µM in the assay with HOP-92 NSCLC; over 100 µM in the assay on U251 CNS; over 100 µM in the assay on OVCAR-5 ovarian; over 100 µM in the assay on MOLT-4 leukemia. In addition, the GI50 in the assay with NCI/ADR-RES ovarian and in the assay with COLO 205 colon was over 100 µM each time. For the same molecule, the TGI in the assay with HT29 colon was over 100 µM; in the assay with KM12 colon it was over 100 µM; with HOP-92 NSCLC, 97.9 µM; in the assay on U251 CNS it was over 100 µM; in the assay on OVCAR-5 ovarian, over 100 µM; in the assay on MOLT-4 leukemia, over 100 µM. Further, the TGI in the assay on NCI/ADR-RES ovarian and in the assay on COLO 205 colon was over 100 µM throughout.
`CC(C)CC(N)C(=O)O` (stereo not drawn): the TGI in the assay on HT29 colon, in the assay on KM12 colon, in the assay with HOP-92 NSCLC, in the assay on U251 CNS, in the assay with MOLT-4 leukemia and in the assay with A549 NSCLC was over 100 µM each time. For the same molecule, the TGI with NCI/ADR-RES ovarian, in the assay with COLO 205 colon and in the assay on UACC-257 melanoma was over 100 µM each time.
With `COc1ccc(C2CC(=O)c3c(O)c(OC)c(OC)c(OC)c3O2)c(O)c1` (stereo not drawn), the GI50 with HT29 colon was 2.64 µM; in the assay with KM12 colon, 0.0693 µM; in the assay with HOP-92 NSCLC it was 0.0574 µM; with U251 CNS, 0.0985 µM; in the assay with OVCAR-5 ovarian, 5.57 µM; in the assay on MOLT-4 leukemia, 1.65 µM. The GI50 is 0.41 µM in the assay with A549 NSCLC, 0.0565 µM with NCI/ADR-RES ovarian and 4.43 µM in the assay on COLO 205 colon. Further, the TGI is over 100 µM with HT29 colon; 15.7 µM with KM12 colon; 13.9 µM in the assay on HOP-92 NSCLC; 36.1 µM with U251 CNS; 93.4 µM in the assay with OVCAR-5 ovarian; 29.6 µM in the assay with MOLT-4 leukemia. For the same molecule, the TGI with A549 NSCLC turned out to be 28.8 µM; in the assay with NCI/ADR-RES ovarian, 20.6 µM; in the assay on COLO 205 colon, 18 µM.
